# Legend:
# Assay in all cases: relative viability (nuclei count vs DMSO), 5 days (fraction); higher = more cells survive
# [1] = test system: NCI-H1792
# Procedure, shortened: (§1)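 Lung cancer cell lines, seeded in 1536-well plates, were treated the following day by pin tool with a single drug or with five library-drug doses (not always all listed) in √10 steps on top of a fixed anchor-drug dose. Cells were fixed and nuclei stained in one step after 5 days, and nuclei were counted. Relative viability is the nuclei count for treated wells divided by that for vehicle wells, reported as medians of duplicate plates.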
# [2] = test system: NCI-H23
# Procedure, shortened: as §1
# [3] = test system: EKVX
# Procedure, shortened: as §1
# [4] = test system: NCI-H838
# Procedure, shortened: as §1
# [5] = test system: A-427
# Procedure, shortened: as §1
# [6] = test system: HCC-15
# Procedure, shortened: as §1
# [7] = test system: HCC-827
# Procedure, shortened: as §1
# [8] = test system: NCI-H441
# Procedure, shortened: as §1
# [9] = test system: COR-L 105
# Procedure, shortened: as §1
# [10] = test system: NCI-H1437
# Procedure, shortened: as §1
# [11] = test system: BEN
# Procedure, shortened: as §1
# [12] = test system: 201T
# Procedure, shortened: as §1
# [13] = test system: NCI-H1666
# Procedure, shortened: as §1
# [14] = test system: LK-2
# Procedure, shortened: as §1
# [15] = test system: COR-L23
# Procedure, shortened: as §1
# [16] = test system: HCC-44
# Procedure, shortened: as §1
# [17] = test system: SK-MES-1
# Procedure, shortened: as §1
# [18] = test system: HARA
# Procedure, shortened: as §1
# [19] = test system: NCI-H596
# Procedure, shortened: as §1
# [20] = test system: NCI-H1975
# Procedure, shortened: as §1
smiles,measurement,setting,value
O=C(O)c1ccc(-c2c[nH]c3ncc(-c4ccccc4)cc23)cc1C1CCCC1 + CC1(C)CCC(c2ccc(Cl)cc2)=C(CN2CCN(c3ccc(C(=O)NS(=O)(=O)c4ccc(N[C@H](CCN5CCOCC5)CSc5ccccc5)c(S(=O)(=O)C(F)(F)F)c4)cc3)CC2)C1 [Navitoclax] (partner 0.5 µM),relative viability,[1]; first compound 0.04 µM,0.516
same,relative viability,[1]; first compound 0.1265 µM,0.728
same,relative viability,[1]; first compound 0.4 µM,0.661
same,relative viability,[1]; first compound 1.265 µM,0.588
same,relative viability,[2]; first compound 0.04 µM,0.804
same,relative viability,[2]; first compound 0.1265 µM,0.944
same,relative viability,[2]; first compound 0.4 µM,0.757
same,relative viability,[2]; first compound 1.265 µM,0.724
same,relative viability,[3]; first compound 0.04 µM,0.92
same,relative viability,[3]; first compound 0.1265 µM,0.967
same,relative viability,[3]; first compound 0.4 µM,1.03
same,relative viability,[3]; first compound 1.265 µM,0.655
same,relative viability,[4]; first compound 0.04 µM,1.15
same,relative viability,[4]; first compound 0.1265 µM,1.27
same,relative viability,[4]; first compound 0.4 µM,1.22
same,relative viability,[4]; first compound 1.265 µM,1.07
same,relative viability,[5]; first compound 0.04 µM,1.02
same,relative viability,[5]; first compound 0.1265 µM,0.936
same,relative viability,[5]; first compound 0.4 µM,0.868
same,relative viability,[5]; first compound 1.265 µM,0.708
same,relative viability,[6]; first compound 0.04 µM,0.697
same,relative viability,[6]; first compound 0.1265 µM,0.746
same,relative viability,[6]; first compound 0.4 µM,0.662
same,relative viability,[6]; first compound 1.265 µM,0.373
same,relative viability,[7]; first compound 0.04 µM,0.95
same,relative viability,[7]; first compound 0.1265 µM,1.04
same,relative viability,[7]; first compound 0.4 µM,0.979
same,relative viability,[7]; first compound 1.265 µM,0.798
same,relative viability,[8]; first compound 0.04 µM,0.751
same,relative viability,[8]; first compound 0.1265 µM,0.583
same,relative viability,[8]; first compound 0.4 µM,0.365
same,relative viability,[8]; first compound 1.265 µM,0.469
same,relative viability,[9]; first compound 0.04 µM,0.818
same,relative viability,[9]; first compound 0.1265 µM,0.95
same,relative viability,[9]; first compound 0.4 µM,0.733
same,relative viability,[9]; first compound 1.265 µM,0.717
same,relative viability,[10]; first compound 0.04 µM,1.03
same,relative viability,[10]; first compound 0.1265 µM,1.22
same,relative viability,[10]; first compound 0.4 µM,0.955
same,relative viability,[10]; first compound 1.265 µM,0.407
same,relative viability,[11]; first compound 0.04 µM,0.06
same,relative viability,[11]; first compound 0.1265 µM,0.057
same,relative viability,[11]; first compound 0.4 µM,0.0946
same,relative viability,[11]; first compound 1.265 µM,0.0505
same,relative viability,[12]; first compound 0.04 µM,1.23
same,relative viability,[12]; first compound 0.1265 µM,1.26
same,relative viability,[12]; first compound 0.4 µM,1.22
same,relative viability,[12]; first compound 1.265 µM,1.13
same,relative viability,[13]; first compound 0.04 µM,1.02
same,relative viability,[13]; first compound 0.1265 µM,1.01
same,relative viability,[13]; first compound 0.4 µM,0.849
same,relative viability,[13]; first compound 1.265 µM,0.584
same,relative viability,[14]; first compound 0.04 µM,0.9
same,relative viability,[14]; first compound 0.1265 µM,0.876
same,relative viability,[14]; first compound 0.4 µM,0.795
same,relative viability,[14]; first compound 1.265 µM,0.687
same,relative viability,[15]; first compound 0.04 µM,1.01
same,relative viability,[15]; first compound 0.1265 µM,1.04
same,relative viability,[15]; first compound 0.4 µM,1.09
same,relative viability,[15]; first compound 1.265 µM,0.64
same,relative viability,[16]; first compound 0.04 µM,1.06
same,relative viability,[16]; first compound 0.1265 µM,1.01
same,relative viability,[16]; first compound 0.4 µM,0.944
same,relative viability,[16]; first compound 1.265 µM,0.914
same,relative viability,[17]; first compound 0.04 µM,1.19
same,relative viability,[17]; first compound 0.1265 µM,1.24
same,relative viability,[17]; first compound 0.4 µM,1.05
same,relative viability,[17]; first compound 1.265 µM,0.798
same,relative viability,[18]; first compound 0.04 µM,1.08
same,relative viability,[18]; first compound 0.1265 µM,1.14
same,relative viability,[18]; first compound 0.4 µM,1.09
same,relative viability,[18]; first compound 1.265 µM,1.04
same,relative viability,[19]; first compound 0.04 µM,0.82
same,relative viability,[19]; first compound 0.1265 µM,1.12
same,relative viability,[19]; first compound 0.4 µM,0.869
same,relative viability,[19]; first compound 1.265 µM,0.884
same,relative viability,[20]; first compound 0.04 µM,1.13
same,relative viability,[20]; first compound 0.1265 µM,1.25
same,relative viability,[20]; first compound 0.4 µM,1.1
same,relative viability,[20]; first compound 1.265 µM,1.17

# Source: the supplement of paper PMC10307832
